In patent US10327423B2, “Antimicrobial compounds and compositions, and uses thereof” (Akeso Biomedical, Inc., priority 2014, dated 2019):
“Also recorded” adds a separate entry of the source.

Key:
[1] = test system: Uropathogenic E. coli UPEC-536; experiment: Planktonic growth rate in RPMI-1640; format: cell-based, Escherichia coli; settings: Fe-QA 100 μM, 24 hours
Experimental: The growth rate of Uropathogenic E. coli UPEC-536 in RPMI-1640 media over a period of 24 hours was compared to the growth rate of UPEC in RPMI-1640 media, but in the presence of 100 μM Fe-QA. The growth rate of Pseudomonas aeruginosa in RPMI-1640 media was also compared to the growth rate of Pseudomonas aeruginosa in RPMI-1640 media, but in the presence of 100 μM Fe-QA.

[2] = test system: Pseudomonas aeruginosa (PAO-1 Clinical); experiment: Growth curve of antibiotic resistant clinical isolate with kanamycin and FeQ; format: cell-based; settings: kanamycin and FeQ added to growth media
Experimental: The impact on the growth curve of an antibiotic resistant clinical isolate of Pseudomonas aeruginosa (PAO-1 Clinical) grown in the presence of kanamycin and FeQ versus the clinical isolate grown in the presence of (i) FeQ, (ii) kanamycin or (iii) without addition of FeQ or kanamycin (control) was assessed.

[3] = test system: bacterial flora present in the mouth; experiment: Biofilm formation on extracted human teeth (CEPLAC staining); format: cell-based; settings: FeQ 340 μM; 48 hours of culturing
Experimental: Molar teeth were extracted from human patients, and mouth swabs taken from each patient to obtain samples of each patient's bacterial flora present in the mouth. The mouth swabs were cultured in the laboratory using LB media in order to grow bacterial populations ordinarily present in the mouth of each patient. The extracted teeth were washed and brushed extensively using PBS buffer and ethanol. Each patient's tooth was then placed in the bacterial culture prepared from that patient's bacterial flora sample, and cultured aerobically for 24 hours in LB media. The teeth were then stained with CEPLAC™ (Manx Healthcare Ltd, Warwick, UK), and washed three times with PBS-Tween (50 mL) to determine if biofilm had been formed on the teeth.
All teeth stained red indicating the presence of biofilm on the teeth after just 24 hours. The same teeth were then cleaned using PBS buffer and ethanol, and the procedure repeated except with 48 hours of culturing in the presence of FeQ (340 μM).

[4] = Growth performance of broilers challenged with Campylobacter dirty litter at day 20; format: in vivo, chicken (Ross 308 male broilers); settings: treatment groups 3, 5, 6, 7 (FeQ) and 8 (FeTyr)
Experimental: (§1) A study was performed to evaluate growth promotion and reduction of Campylobacter carriage using FeQ and FeTyr in Ross 308 male broilers with 7 treatment groups. Each treatment group comprised four replicates of 10 birds per pen (40 birds/treatment group and 4 pens of 10 birds/treatment group), and there were 2 control groups and 5 test groups. All the test groups and one of the control groups were exposed at day 20 of the trial to dirty litter, which tested positive for Campylobacter. This method was used to provide a more natural method to Campylobacter challenge the birds. Thus there was a positive control where one treatment group was challenged with Campylobacter and one negative control group where the birds were not challenged, and five treatment groups that were all challenged with Campylobacter. The total number of birds used in the 7 treatment groups was 280. Treatment group 1 was a negative control where birds just received the commercial feed, and were not challenged with dirty litter containing Campylobacter. Treatment group 2 was the positive control where the birds received the commercial feed, and were challenged with dirty litter containing Campylobacter at day 20. Treatment group 3 received 0.22 g/L of FeQ in their drinking water and 0.22 g/Kg FeQ in their feed during the entire trial, and was challenged with dirty litter containing Campylobacter at day 20. Treatment group 5 received 0.22 g/L of FeQ in their drinking water during the entire trial, and was challenged with dirty litter containing Campylobacter at day 20. Treatment group 6 received 0.22 g/kg FeQ in their feed during the entire trial, and was challenged with dirty litter containing Campylobacter at day 20. Treatment group 7 received 0.022 g/L FeQ in their drinking water during the entire trial, and was challenged with dirty litter containing Campylobacter at day 20. Treatment group 8 received 0.02 g/L FeTyr in their drinking water during the entire trial, and was challenged with dirty litter containing Campylobacter at day 20. The FeTyr was pre-dissolved in DMSO, and diluted to provide a solution of 0.02 g/L of FeTyr in water. (An additional treatment group 4 was terminated due to solubility issues.) […]
The feeding program is show in Table 4. […] All birds were weighed individually and feed weigh backs recorded per pen at day 0, 11, 21, 24 and 42 days.
In order to minimize risk of cross-contamination, standard industry biosecurity measures were used including: disinfecting boots, changing overshoes and gloves between pens/treatments, entering Campylobacter negative pens before entering Campylobacter positive pens, and leaving adjacent pens empty. Daily health, culls, and mortality were recorded. All bird weights were recorded at 0, 11, 21, 24, 33 and 42 days. […]

Campylobacter = Campylobacter carriage in chickens (cfu/g of droppings and caeca samples); format: in vivo; settings: days 0-42, dirty litter challenge
Experimental: as §1, with “20.” for “20. Treatment group 7 received 0.022 g/L FeQ in their drinking water during the entire trial, and was challenged with dirty litter containing Campylobacter at day 20. Treatment group 8 received 0.02 g/L FeTyr in their drinking water during the entire trial, and was challenged with dirty litter containing Campylobacter at day 20. The FeTyr was pre-dissolved in DMSO, and diluted to provide a solution of 0.02 g/L of FeTyr in water. (An additional treatment group 4 was terminated due to solubility issues.)”
Prior to challenging the chickens with dirty litter containing Campylobacter at day 20, each pen was tested for Campylobacter using cloacal swabs. […] Samples were analyzed for blood chemistry, including analysis for alkaline phosphatase, aspartate amino transferase, alanine amino transferase, gamma-glutamyl transferase, lactate dehydrogenase, total protein, albumin, globulin, amylase and glucose.

O=C1[O][Fe]23([O]C(=O)[C@]4(C[C@@H](O)[C@H](O)[C@H](O)C4)[O]2)([O]C(=O)[C@]2(C[C@@H](O)[C@H](O)[C@H](O)C2)[O]3)[O][C@@]12C[C@@H](O)[C@H](O)[C@H](O)C2 [FeQ, a complex of quinic acid with Fe III]
planktonic growth rate [1]: does not inhibit the growth
growth rate versus kanamycin or FeQ alone [2]: large reduction in the growth rate
growth rate versus kanamycin or FeQ alone ([2]; listed as Fe-QA): retarded
biofilm on human teeth (red CEPLAC staining) [3]: no teeth stained red
ABW at day 42 versus positive control (challenged, untreated) [4]: performed better than the positive control
MFCR at day 42 versus positive control (challenged, untreated) [4]: performed better than the positive control
Campylobacter colony forming units per gram of bird droppings at day 42 (Campylobacter; Treatment 7: FeQ 0.022 g/L in drinking water): less of an effect than the other treatment groups
average Campylobacter cfu/g of caeca samples at day 42 versus positive control (Campylobacter; treatment groups 3, 5, 6, 7 (FeQ) and 8 (FeTyr)): lower levels of Campylobacter in their caeca; also recorded: performed better than the positive control
